Patent US9376470B2, “Polypeptide having angiogenesis-inducing activity and antibacterial activity, and use thereof for medical purposes” (FunPep Inc., priority 2008, dated 2016)
Peptide text beside a SMILES is read from it.

System: HWY/slc hairless rats, full-thickness defect infected with Staphylococcus aureus
Assay: Healing effect in rat infected-wound model
Format: in vivo
Description: Referring to Stenberg B D et al. (J Surg Res. 1991 January; 50(1):47-50.) and Hayward P et al. (Am J. Surg. 1992 March; 163(3):288-93.), a rat infected-wound model was produced as described below. […] hairless rats (male, 7-week old, obtained from Japan SLC, Inc.) were used. The day before full-thickness defects were created, the number of leukocytes was measured and cyclophosphamide was administered in tail vein (100 mg/kg). On the next day, the number of leukocytes was counted. Only the individuals in which the number of leukocytes was not more than 5000, were used. […] After administering the test substances, the wound sites were covered with a covering (PERME-ROLL, Nitto Medical Corporation) (day 0). […] Six days after the full-thickness defects were created (day 6), the area where the wounds had still not healed was measured to calculate the ratio of it relative to the area where the wounds were created, and the ratio was regarded as the wound area ratio on day 6.

**Q.** For `CC[C@H](C)[C@H](NC(=O)[C@H](CC(C)C)NC(=O)[C@H](CCCCN)NC(=O)[C@H](CC(C)C)NC(=O)[C@@H](N)CCSC)C(=O)N[C@@H](Cc1ccccc1)C(=O)N[C@@H](CC(C)C)C(=O)N[C@@H](Cc1c[nH]cn1)C(=O)N[C@@H](CCCNC(=N)N)C(=O)N[C@@H](CC(C)C)C(=O)N[C@@H](CCCCN)C(=O)N[C@@H](CCCNC(=N)N)C(=O)N[C@@H](CCSC)C(=O)N[C@@H](CCCNC(=N)N)C(=O)N[C@@H](CCCCN)C(=O)N[C@@H](CCCNC(=N)N)C(=O)N[C@@H](CC(C)C)C(=O)N[C@@H](CCCCN)C(=O)N[C@@H](CCCNC(=N)N)C(=O)N[C@@H](CCCCN)C(=O)O` [SR-1] (H-MLKLIFLHRLKRMRKRLKRK-OH; N-terminus assumed), which “Wound area ratio on day 6” value (SR-1 50 μg, bFGF formulation 3 μg/25 μL, once a day days 0-3) is on record?
**A.** 80.2

**Q.** And the “healing effect on wounds associated with infection” value (compared with the bFGF formulation)?
**A.** higher healing effect compared with the bFGF formulation
